According to patent publication US20240109903A1, “SUBSTITUTED HETEROCYCLES FOR TREATING CANCER” (Northwestern University, priority 2022, published 2024):
Like-named read-outs stand apart in the source and are kept apart here.

Tests used:
Assay type in all cases: cell-based
[1] = tested on: MV-4-11 acute myeloid leukemia cells; assay: CellTiter-Glo 2.0 cell viability, MV-4-11; conditions: Homo sapiens
Method in brief: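 MV4-11 cells plated at 3,000 cells/well on pre-dispensed compounds and incubated 3 days at 37 °C, 5% CO2. Viability read as ATP-dependent luminescence with CellTiter-Glo 2.0 after 20 min at ambient temperature, followed by regression analysis.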

CCRF-CEM = assay: NCI 60 five-dose screen CCRF-CEM; conditions: Homo sapiens
K-562 = assay: NCI 60 five-dose screen K-562; conditions: Homo sapiens
A549/ATCC = assay: NCI 60 five-dose screen A549/ATCC; conditions: Homo sapiens
EKVX = assay: NCI 60 five-dose screen EKVX; conditions: Homo sapiens
HOP-92 = assay: NCI 60 five-dose screen HOP-92; conditions: Homo sapiens
NCI-H23 = assay: NCI 60 five-dose screen NCI-H23; conditions: Homo sapiens
NCI-H522 = assay: NCI 60 five-dose screen NCI-H522; conditions: Homo sapiens
HCT-116 = assay: NCI 60 five-dose screen HCT-116; conditions: Homo sapiens
SW-620 = assay: NCI 60 five-dose screen SW-620; conditions: Homo sapiens
SF-295 = assay: NCI 60 five-dose screen SF-295; conditions: Homo sapiens
MALME-3M = assay: NCI 60 five-dose screen MALME-3M; conditions: Homo sapiens, Malme-3M
M14 = assay: NCI 60 five-dose screen M14; conditions: Homo sapiens
SK-MEL-2 = assay: NCI 60 five-dose screen SK-MEL-2; conditions: Homo sapiens
IGROV1 = assay: NCI 60 five-dose screen IGROV1; conditions: Homo sapiens
OVCAR-3 = assay: NCI 60 five-dose screen OVCAR-3; conditions: Homo sapiens
OVCAR-4 = assay: NCI 60 five-dose screen OVCAR-4; conditions: Homo sapiens
A498 = assay: NCI 60 five-dose screen A498; conditions: Homo sapiens
ACHN = assay: NCI 60 five-dose screen ACHN; conditions: Homo sapiens
PC-3 = assay: NCI 60 five-dose screen PC-3; conditions: Homo sapiens
DU-145 = assay: NCI 60 five-dose screen DU-145; conditions: Homo sapiens
MCF7 = assay: NCI 60 five-dose screen MCF7; conditions: Homo sapiens
HS 578T = assay: NCI 60 five-dose screen HS 578T; conditions: Homo sapiens
T-47D = assay: NCI 60 five-dose screen T-47D; conditions: Homo sapiens, T47D
[2] = read-out: LC50 (the source's name)
[3] = read-out: LC50 (the source's name) (converted)

COc1cc(Cn2c(C(F)(F)F)cc3c(Cl)ncnc32)ccn1 [NUCC-0226694]
IC50 ([1]; MV4-11, 72 h, MV-4-11 cells, 3 days, CellTiter-Glo 2.0, read-out: IC50 (uM) [Cell Type: MV-4-11]): 0.999 µM
IC50 ([1]; MV4-11, bound stated in text, read-out: IC50 against MV-4-11 acute myeloid leukemia cells): < 2 µM
GI50 (CCRF-CEM): 3.16 µM
IC50 (CCRF-CEM): 5.37 µM
IC (TGI) (CCRF-CEM): 18.6 µM
CC50 (CCRF-CEM; [2]): ≥ 100 µM
GI50 (K-562; K562): 2.34 µM
IC50 (K-562; K562): 2.69 µM
IC (TGI) (K-562; K562): 100 µM
CC50 (K-562; K562, read-out: LC50 (the source's name)): ≥ 100 µM
GI50 (A549/ATCC): 16.6 µM
IC50 (A549/ATCC): 27.5 µM
IC (TGI) (A549/ATCC): 38 µM
CC50 (A549/ATCC; [3]): 89.1 µM
GI50 (EKVX): 7.94 µM
IC50 (EKVX): 17 µM
IC (TGI) (EKVX): 24 µM
CC50 (EKVX; [3]): 63.1 µM
GI50 (HOP-92): 10.7 µM
IC50 (HOP-92): 33.9 µM
IC (TGI) (HOP-92): 30.2 µM
CC50 (HOP-92; [3]): 85.1 µM
GI50 (NCI-H23): 2.19 µM
IC50 (NCI-H23): 3.98 µM
IC (TGI) (NCI-H23): 4.9 µM
CC50 (NCI-H23; [3]): 13.5 µM
GI50 (NCI-H522): 3.31 µM
IC50 (NCI-H522): 11 µM
IC (TGI) (NCI-H522): 15.1 µM
CC50 (NCI-H522; [3]): 50.1 µM
GI50 (HCT-116): 1.74 µM
IC50 (HCT-116): 2.63 µM
IC (TGI) (HCT-116): 4.27 µM
CC50 (HCT-116; [3]): 15.1 µM
GI50 (SW-620): 3.89 µM
IC50 (SW-620): 4.9 µM
IC (TGI) (SW-620): 16.6 µM
CC50 (SW-620; [3]): 49 µM
GI50 (SF-295): 16.6 µM
IC50 (SF-295): 30.2 µM
IC (TGI) (SF-295): 32.4 µM
CC50 (SF-295; [3]): 63.1 µM
GI50 (MALME-3M): 12.6 µM
IC50 (MALME-3M): 25.7 µM
IC (TGI) (MALME-3M): 25.7 µM
CC50 (MALME-3M; [3]): 51.3 µM
GI50 (M14): 1.51 µM
IC50 (M14): 2.69 µM
IC (TGI) (M14): 4.17 µM
CC50 (M14; [3]): 16.6 µM
GI50 (SK-MEL-2): 10 µM
IC50 (SK-MEL-2): 21.9 µM
IC (TGI) (SK-MEL-2): 22.4 µM
CC50 (SK-MEL-2; [3]): 51.3 µM
GI50 (IGROV1; IGROV-1): 1.78 µM
IC50 (IGROV1; IGROV-1): 3.16 µM
IC (TGI) (IGROV1; IGROV-1): 3.63 µM
CC50 (IGROV1; IGROV-1, read-out: LC50 (the source's name) (converted)): 7.41 µM
GI50 (OVCAR-3): 2.34 µM
IC50 (OVCAR-3): 4.07 µM
IC (TGI) (OVCAR-3): 7.08 µM
CC50 (OVCAR-3; [3]): 30.9 µM
GI50 (OVCAR-4): 12 µM
IC50 (OVCAR-4): 22.9 µM
IC (TGI) (OVCAR-4): 26.9 µM
CC50 (OVCAR-4; [3]): 58.9 µM
GI50 (A498): 15.8 µM
IC50 (A498): 33.1 µM
IC (TGI) (A498): 30.9 µM
CC50 (A498; [3]): 58.9 µM
GI50 (ACHN): 14.5 µM
IC50 (ACHN): 25.1 µM
IC (TGI) (ACHN): 28.8 µM
CC50 (ACHN; [3]): 57.5 µM
GI50 (PC-3): 5.5 µM
IC50 (PC-3): 9.55 µM
IC (TGI) (PC-3): 20.9 µM
CC50 (PC-3; [3]): 58.9 µM
GI50 (DU-145): 1.78 µM
IC50 (DU-145): 3.09 µM
IC (TGI) (DU-145): 3.24 µM
CC50 (DU-145; [3]): 5.89 µM
GI50 (MCF7): 5.13 µM
IC50 (MCF7): 7.24 µM
IC (TGI) (MCF7): 20 µM
CC50 (MCF7; [3]): 61.7 µM
GI50 (HS 578T): 3.16 µM
IC50 (HS 578T): 24.5 µM
IC (TGI) (HS 578T): 16.6 µM
CC50 (HS 578T; [2]): ≥ 100 µM
GI50 (T-47D): 13.5 µM
IC50 (T-47D): 38 µM
IC (TGI) (T-47D): 61.7 µM
CC50 (T-47D; [2]): ≥ 100 µM
